According to doi:10.1101/2025.02.12.637899v1 (biorxiv, 2025):
Where two headings read alike, the source gives them in different places.

Experiments:
[1] = molecular target: T1, rP2X7R (full-length wild-type rat P2X7 receptor) (Rattus norvegicus, UniProt Q64663); experiment: two-electrode voltage clamp, Xenopus oocytes; type: cell-based
T1 construct: gene P2rx7; full-length wild-type homotrimer; untagged in Xenopus oocytes for TEVC
T1 sequence (Q64663 1-595): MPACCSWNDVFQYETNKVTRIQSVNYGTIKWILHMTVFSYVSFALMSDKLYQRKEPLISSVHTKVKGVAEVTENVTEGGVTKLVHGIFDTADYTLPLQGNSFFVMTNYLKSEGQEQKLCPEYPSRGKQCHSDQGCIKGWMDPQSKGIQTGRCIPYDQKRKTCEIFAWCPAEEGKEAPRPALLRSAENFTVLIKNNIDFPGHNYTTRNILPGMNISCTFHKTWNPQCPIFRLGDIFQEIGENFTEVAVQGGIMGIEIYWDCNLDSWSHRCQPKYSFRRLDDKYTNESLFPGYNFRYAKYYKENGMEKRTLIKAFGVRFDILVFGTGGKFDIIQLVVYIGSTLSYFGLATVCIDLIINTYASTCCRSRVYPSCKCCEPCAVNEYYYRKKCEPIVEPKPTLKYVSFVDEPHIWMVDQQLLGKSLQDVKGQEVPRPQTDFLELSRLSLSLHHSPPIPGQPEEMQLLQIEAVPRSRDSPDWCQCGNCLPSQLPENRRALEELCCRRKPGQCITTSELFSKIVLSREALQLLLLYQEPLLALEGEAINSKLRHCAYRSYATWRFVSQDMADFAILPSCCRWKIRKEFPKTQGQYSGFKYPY

[2] = molecular target: T2, hP2X7R (full-length wild-type human P2X7 receptor) (Homo sapiens, UniProt Q99572); experiment: two-electrode voltage clamp, Xenopus oocytes; type: cell-based
T2 construct: gene P2RX7; full-length wild-type homotrimer; structures: C-terminal GFP, 3C site and His tag, digested with HRV 3C, from HEK293 / HEK293 GNTI- cells; BLI: biotinylated receptor; TEVC: untagged in Xenopus oocytes; calcium influx: 1321N1 cells; ethidium uptake: HEK293 cells
T2 sequence (Q99572 1-595): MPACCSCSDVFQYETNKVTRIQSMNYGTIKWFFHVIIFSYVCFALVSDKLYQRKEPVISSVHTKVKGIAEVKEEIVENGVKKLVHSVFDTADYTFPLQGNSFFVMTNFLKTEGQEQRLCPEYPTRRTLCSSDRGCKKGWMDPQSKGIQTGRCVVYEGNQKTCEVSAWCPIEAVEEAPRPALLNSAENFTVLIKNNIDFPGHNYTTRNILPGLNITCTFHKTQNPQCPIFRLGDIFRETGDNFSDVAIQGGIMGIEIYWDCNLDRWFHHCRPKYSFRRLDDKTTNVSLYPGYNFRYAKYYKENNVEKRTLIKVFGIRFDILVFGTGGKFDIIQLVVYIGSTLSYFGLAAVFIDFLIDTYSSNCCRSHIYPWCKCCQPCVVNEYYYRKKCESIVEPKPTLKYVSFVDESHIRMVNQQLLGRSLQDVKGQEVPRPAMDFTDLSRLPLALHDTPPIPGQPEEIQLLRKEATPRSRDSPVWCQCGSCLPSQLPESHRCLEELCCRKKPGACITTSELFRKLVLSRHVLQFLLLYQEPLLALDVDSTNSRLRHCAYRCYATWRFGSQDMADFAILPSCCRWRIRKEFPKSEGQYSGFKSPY

[3] = molecular target: T3, mP2X7R (full-length wild-type mouse P2X7 receptor) (Mus musculus, UniProt Q9Z1M0); experiment: two-electrode voltage clamp, Xenopus oocytes; type: cell-based
T3 construct: gene P2rx7; full-length wild-type homotrimer; untagged in Xenopus oocytes for TEVC
T3 sequence (Q9Z1M0 1-595): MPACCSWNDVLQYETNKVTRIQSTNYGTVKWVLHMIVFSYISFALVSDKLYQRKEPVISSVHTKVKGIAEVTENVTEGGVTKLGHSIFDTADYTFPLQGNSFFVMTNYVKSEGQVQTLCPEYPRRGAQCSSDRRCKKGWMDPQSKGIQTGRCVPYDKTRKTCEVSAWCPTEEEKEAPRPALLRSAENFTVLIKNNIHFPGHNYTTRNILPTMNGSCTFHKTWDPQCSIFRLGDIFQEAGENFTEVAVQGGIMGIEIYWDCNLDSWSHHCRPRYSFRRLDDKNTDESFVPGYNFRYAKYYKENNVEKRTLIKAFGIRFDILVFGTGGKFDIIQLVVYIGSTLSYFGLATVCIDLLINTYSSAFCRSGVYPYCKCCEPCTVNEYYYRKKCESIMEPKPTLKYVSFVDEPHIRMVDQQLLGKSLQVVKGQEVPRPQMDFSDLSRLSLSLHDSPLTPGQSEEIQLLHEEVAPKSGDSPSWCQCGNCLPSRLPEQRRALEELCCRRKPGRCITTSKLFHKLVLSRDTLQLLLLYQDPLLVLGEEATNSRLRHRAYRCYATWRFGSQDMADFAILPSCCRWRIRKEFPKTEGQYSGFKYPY

[4] = molecular target: T2, hP2X7R (full-length wild-type human P2X7 receptor); experiment: bio-layer interferometry, kinetic […] fit; type: binding
[5] = molecular target: T2, hP2X7R (full-length wild-type human P2X7 receptor); experiment: ethidium bromide accumulation, HEK293 cells expressing hP2X7R; type: cell-based
Source text: ethidium bromide accumulation, HEK293 cells expressing hP2X7R on hP2X7R (full-length wild-type human P2X7 receptor)

[6] = molecular target: T4, hP2X2R (human P2X2 receptor) (Homo sapiens, UniProt Q9UBL9); experiment: calcium influx (Fluo-4), […]1 cells; type: cell-based
T4 construct: gene P2RX2; stably expressed in 1321N1 astrocytoma cells by retroviral system
T4 sequence (Q9UBL9 1-471): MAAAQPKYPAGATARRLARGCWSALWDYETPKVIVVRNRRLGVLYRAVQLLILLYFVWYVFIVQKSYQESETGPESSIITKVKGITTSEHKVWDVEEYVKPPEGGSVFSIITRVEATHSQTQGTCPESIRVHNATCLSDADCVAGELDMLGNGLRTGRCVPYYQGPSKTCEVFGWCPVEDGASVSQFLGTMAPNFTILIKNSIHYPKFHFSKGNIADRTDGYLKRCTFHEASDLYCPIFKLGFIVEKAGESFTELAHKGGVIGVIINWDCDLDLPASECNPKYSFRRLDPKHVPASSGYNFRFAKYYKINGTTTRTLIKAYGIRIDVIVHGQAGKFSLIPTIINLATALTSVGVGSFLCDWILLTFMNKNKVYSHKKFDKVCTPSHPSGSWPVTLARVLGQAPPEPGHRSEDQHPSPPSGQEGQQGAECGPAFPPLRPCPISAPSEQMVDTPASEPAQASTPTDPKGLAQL

[7] = molecular target: T3, mP2X7R (full-length wild-type mouse P2X7 receptor); experiment: calcium influx (Fluo-4), […]1 cells; type: cell-based
[8] = molecular target: T5, hP2X3R (human P2X3 receptor, S15V mutant) (Homo sapiens, UniProt P56373, S15V); experiment: calcium influx (Calcium […]), […]1 cells; type: cell-based
T5 construct: gene P2RX3; S15V mutant to prevent fast desensitization; stably expressed in 1321N1 astrocytoma cells by retroviral system
T5 sequence (P56373 1-397 S15V): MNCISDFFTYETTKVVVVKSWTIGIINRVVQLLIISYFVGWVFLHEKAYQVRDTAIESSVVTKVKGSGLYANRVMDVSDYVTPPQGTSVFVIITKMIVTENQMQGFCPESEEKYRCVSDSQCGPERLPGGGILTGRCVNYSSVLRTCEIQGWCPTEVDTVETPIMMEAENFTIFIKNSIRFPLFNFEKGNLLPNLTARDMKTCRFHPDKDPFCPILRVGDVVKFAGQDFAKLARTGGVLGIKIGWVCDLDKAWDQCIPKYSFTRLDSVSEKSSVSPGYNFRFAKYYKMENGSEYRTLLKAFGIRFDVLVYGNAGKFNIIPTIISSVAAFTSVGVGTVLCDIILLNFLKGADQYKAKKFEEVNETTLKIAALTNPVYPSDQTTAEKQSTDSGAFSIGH

[9] = molecular target: T1, rP2X7R (full-length wild-type rat P2X7 receptor); experiment: calcium influx (Fluo-4), […]1 cells; type: cell-based
[10] = molecular target: T2, hP2X7R (full-length wild-type human P2X7 receptor); experiment: calcium influx (Fluo-4), […]1 cells; type: cell-based; conditions: agonist BzATP at EC80; allosteric antagonist, classical allosteric site; pH 7.4
[11] = molecular target: T6, hP2X4R (human P2X4 receptor) (Homo sapiens, UniProt Q99571); experiment: calcium influx (Fluo-4), […]1 cells; type: cell-based
T6 construct: gene P2RX4; stably expressed in 1321N1 astrocytoma cells by retroviral system
T6 sequence (Q99571 1-388): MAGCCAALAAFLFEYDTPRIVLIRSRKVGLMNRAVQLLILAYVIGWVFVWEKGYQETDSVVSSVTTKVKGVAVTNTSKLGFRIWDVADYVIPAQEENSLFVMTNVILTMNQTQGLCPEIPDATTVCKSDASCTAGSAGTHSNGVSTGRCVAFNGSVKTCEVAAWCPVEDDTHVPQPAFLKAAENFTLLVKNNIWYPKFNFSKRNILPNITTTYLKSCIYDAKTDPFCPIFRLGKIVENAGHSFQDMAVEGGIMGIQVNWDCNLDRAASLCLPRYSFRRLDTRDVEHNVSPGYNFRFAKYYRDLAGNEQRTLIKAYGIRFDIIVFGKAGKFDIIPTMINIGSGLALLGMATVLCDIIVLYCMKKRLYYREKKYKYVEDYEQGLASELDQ

`Nc1ncnc2c1ncn2[C@@H]1O[C@H](COP(=O)(O)OP(=O)(O)OP(=O)(O)O)[C@@H](O)[C@H]1O` [ATP] gave an EC50 [1] of 34000 ± 8400 nM, an EC50 [2] of 89000 ± 8300 nM and an EC50 [3] of 70000 ± 17000 nM. The Kd [4] was 650 ± 120 nM.
For `CC12CC3CC(C)(C1)CC(C(=O)NNc1ccccc1Cl)(C3)C2` [UB-ALT-P36], the IC50 [5] was 477 ± 170 nM.
For `O=C(NNc1ccccc1Cl)C12CC3CC(CC(C3)C1)C2` [UB-ALT-P30], the inhibition at 10 µM [6] was 29 ± 7%, the IC50 [7] was 150 ± 27 nM and the inhibition at 10 µM [8] was 86 ± 9%. For the same compound, the IC50 [9] was 120 ± 50 nM, the IC50 [10] was 18 ± 8.3 nM and the inhibition at 10 µM [11] was 44 ± 14%.
`CC12CC3CC1(C)C1(C)CC3(C(=O)NNc3ccccc3Cl)CC21C` [UB-MBX-46] showed an IC50 ([7]; agonist BzATP at EC80, pH 7.4) of 4.52 ± 0.72 nM and an IC50 ([9]; agonist BzATP at EC80, pH 7.4) of 40.6 ± 10.4 nM.
`CC12CC3(C)CC(C)(C1)CC(C(=O)NNc1ccccc1Cl)(C2)C3` [UB-ALT-P37] was tested, and the IC50 [5] was over 1000 nM.
In the case of `O=C(NNc1ccccc1Cl)C12C3C4C5C3C1C5C42` (stereo not drawn) [UB-ALT-P38], the IC50 [5] is reported as 430 ± 64 nM.
